Source: ChEMBL document CHEMBL4270617, “Design, synthesis, antimicrobial, antiquorum-sensing and antitumor evaluation of new series of pyrazolopyridine derivatives” (Eur J Med Chem, 2018)
≈ marks a conversion by molar mass, not a printed value.

Tests used:
[1] = system: Mus musculus; assay: Toxicity in Swiss albino mouse implanted with mouse EAC cells assessed as RBC count at 0.5 mg/mouse administered for 9 days (reference value: 3.59 10^6/mm3); format: organism-based; details: in vivo, 216 h
[2] = system: Mus musculus; assay: Toxicity in Swiss albino mouse implanted with mouse EAC cells assessed as hemoglobin level at 0.5 mg/mouse administered for 9 days (reference value: 7.05 g/dl); format: organism-based; details: in vivo, 216 h
[3] = system: Bacillus cereus; assay: Antibacterial activity against Bacillus cereus UW 85 after 24 hrs by two-fold serial dilution method; format: functional; details: UW 85, 24 h
[4] = system: WISH; assay: Cytotoxicity against human WISH cells after 48 hrs by MTT assay; format: cell-based
[5] = system: Ehrlich; assay: Antitumor activity against mouse EAC cells allografted in Swiss mouse assessed as mean survival time at 0.5 mg/mouse administered for 9 days (reference value: 18 day); format: functional
[6] = system: Aspergillus fumigatus; assay: Antifungal activity against Aspergillus fumigatus 293 after 48 hrs by two-fold serial dilution method; format: functional; details: Aspergillus fumigatus, 293, 48 h
[7] = system: MCF7; assay: Antitumor activity against human MCF7 cells assessed as inhibition of cell proliferation after 48 hrs by MTT assay; format: functional, cell-based; details: MCF7, 48 h
[8] = Displacement of methyl green from DNA (unknown origin) incubated in dark for 24 hrs
[9] = system: Escherichia coli; assay: Antibacterial activity against Escherichia coli ATCC 12435 after 24 hrs by two-fold serial dilution method; format: functional; details: ATCC 12435, 24 h
[10] = system: HeLa; assay: Antitumor activity against human HeLa cells assessed as inhibition of cell proliferation after 48 hrs by MTT assay; format: functional, cell-based; details: read-out: IC50
[11] = system: Ehrlich; assay: Antitumor activity against mouse EAC cells allografted in Swiss mouse assessed as viable tumor cell count at 0.5 mg/mouse administered for 9 days (reference value: 77.41 10^6/ml); format: functional
[12] = system: WI-38; assay: Cytotoxicity against human W138 cells after 48 hrs by MTT assay; format: cell-based; details: WI-38, 48 h
[13] = system: Aspergillus flavus; assay: Antifungal activity against Aspergillus flavus 3375 after 48 hrs by two-fold serial dilution method; format: functional; details: Aspergillus flavus, 3375, 48 h
[14] = system: Pseudomonas aeruginosa; assay: Antibacterial activity against Pseudomonas aeruginosa PAO1 after 24 hrs by two-fold serial dilution method; format: functional; details: PAO1, 24 h
[15] = system: Ehrlich; assay: Antitumor activity against mouse EAC cells allografted in Swiss mouse assessed as tumor volume at 0.5 mg/mouse administered for 9 days (reference value: 10.15 mL); format: functional
[16] = system: Staphylococcus aureus; assay: Antibacterial activity against Staphylococcus aureus ATCC 29213 after 24 hrs by two-fold serial dilution method; format: functional; details: ATCC 29213, 24 h
[17] = system: Candida albicans; assay: Antifungal activity against Candida albicans after 48 hrs by two-fold serial dilution method; format: functional
[18] = system: Ehrlich; assay: Antitumor activity against mouse EAC cells allografted in Swiss mouse assessed as increase in life span at 0.5 mg/mouse administered for 9 days relative to control; format: functional
[19] = system: Mus musculus; assay: Toxicity in Swiss albino mouse implanted with mouse EAC cells assessed as WBC count at 0.5 mg/mouse administered for 9 days (reference value: 20.53 10^3/mm3); format: organism-based; details: in vivo, 216 h
[20] = system: Chromobacterium violaceum; assay: Inhibition of quorum sensing system in Chromobacterium violaceum ATCC 12472 assessed as diameter of violacein pigment inhibition at 5 mg/ml after 48 hrs
[21] = system: HepG2; assay: Antitumor activity against human HepG2 cells assessed as inhibition of cell proliferation after 48 hrs by MTT assay; format: functional, cell-based; details: HepG2, 48 h

Structure (SMILES) | Activity [1] | Activity [2] | MIC [3] | IC50 [4] | MSD [5] | MIC [6] | IC50 [7] | IC50 [8] | MIC [9] | IC50 [10] | Activity [11] | IC50 [12] | MIC [13] | MIC [14] | Activity [15] | MIC [16] | MIC [17] | Activity [18] | Activity [19] | diameter of the inhibition zone (DIZ) [20] | also measured
CCOC(=O)C1=C(N/C=N/c2ncc(-c3ccccc3)s2)Nc2[nH]nc(C)c2C1c1ccc(N(C)C)cc1 (centres undefined) | 4.85 ×10⁶ /mm3 | 11.9 g/dL | 59.2 µM | 29.5 µM | 34 days | 3790 µM | 10.1 µM | 74.2 µM | 474 µM (≈ 250 µg/mL) | 15.4 µM | 48.56 ×10⁶ /ml | 33.5 µM | 3790 µM | 474 µM | 3.8 mL | 59.2 µM | 1900 µM | 88.9% | 11.83 ×10³ /mm3 | 3 mm | IC50 [21]: 9.79 µM
CCOC(=O)C1=C(N/C=N/c2cccnc2Cl)Nc2[nH]nc(C)c2C1c1ccc(N(C)C)cc1 (centres undefined) | 5.78 ×10⁶ /mm3 | 13.85 g/dL | 65.1 µM | 60.1 µM | 59 days | 521 µM | 4.18 µM | 30.2 µM | 65.1 µM (≈ 31.2 µg/mL) | 4.63 µM | 21.8 ×10⁶ /ml | 74.5 µM | 521 µM | 65.1 µM | 1.25 mL | 65.1 µM | 130 µM | 227.8% | 8.14 ×10³ /mm3 | < 2 mm | IC50 [21]: 4.89 µM
CCOC(=O)C1=C(N)Nc2[nH]nc(C)c2C1c1ccc(N(C)C)cc1 (centres undefined) | 6.26 ×10⁶ /mm3 | 14.15 g/dL | > 200 µg/mL | 94.6 µM | 65 days | > 200 µg/mL | 5.06 µM | 32.4 µM | 683 µM (≈ 233 µg/mL) | 6.22 µM | 18.64 ×10⁶ /ml | 84 µM | > 200 µg/mL | > 200 µg/mL | 1.05 mL | > 200 µg/mL | > 200 µg/mL | 261.1% | 6.38 ×10³ /mm3 | < 2 mm | IC50 [21]: 4.24 µM
CCOC(=O)C1=C(NN=C(C(C)=O)C(C)=O)Nc2[nH]nc(C)c2C1c1ccc(N(C)C)cc1 (centres undefined) | 5.65 ×10⁶ /mm3 | 13.45 g/dL | 552 µM | 58.7 µM | 49 days | 4420 µM | 9.74 µM | 35.5 µM | 552 µM (≈ 250 µg/mL) | 17 µM | 27.53 ×10⁶ /ml | 61.4 µM | 1100 µM | 552 µM | 1.9 mL | 2210 µM | 2210 µM | 172.2% | 8.84 ×10³ /mm3 | < 2 mm | IC50 [21]: 8.48 µM
